Patent US8445501B2, “Substituted 7-carboxamido-pyrrolo[3,2-d]pyrimidines” (Takeda GmbH, priority 2008, dated 2013)

Molecular target: T1, human PDE5 (Homo sapiens, UniProt O76074)
T1 construct: from tissue; host or cells: platelets from fresh blood of human donors (lysate, 10,000 g supernatant)
Assay: Inhibition of the type 5 phosphodiesterase (PDE5) activity, modified SPA test with platelet lysate
Type: biochemical
Conditions: PDE5 from human platelet lysate, 0.5 μM cGMP
Procedure, shortened: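 Human platelet lysate (10,000 g supernatant) as PDE5 source in SPA with 0.5 μM cGMP plus [3H]cGMP tracer, pH 7.4, 5 mM Mg2+, 1 μM motapizone and 10 nM PDE2 inhibitor; 10–20% conversion. 5 min preincubation, 15 min at 37 °C, stopped with SPA beads/IBMX. IC50 by non-linear regression.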

Row | Compound | IC50
1 | C[C@H](O)C(=O)N[C@H]1CC[C@H](NC(=O)c2c[nH]c3c(-c4ccccc4OCC4CC4)ncnc23)CC1 [Example 225, trans-4-(2-Cyclopropylmethoxy-phenyl)-5H-pyrrolo[3,2-d]pyrimidine-7-carboxylic acid [4-((S)-2-hydroxy-propionylamino)-cyclohexyl]-amide] | 7.08 nM
2 | O=C(N[C@H]1CC[C@H](NC(=O)C2(O)CC2)CC1)c1c[nH]c2c(-c3ccccc3OCC3CC3)ncnc12 [Example 226, trans-4-(2-Cyclopropylmethoxy-phenyl)-5H-pyrrolo[3,2-d]pyrimidine-7-carboxylic acid {4-[(1-hydroxy-cyclopropanecarbonyl)-amino]-cyclohexyl}-amide] | 3.39 nM
3 | C[C@H](O)C(=O)N1CCC(NC(=O)c2c[nH]c3c(-c4ccccc4OCC4CC4)ncnc23)CC1 [Example 227, 4-(2-Cyclopropylmethoxy-phenyl)-5H-pyrrolo[3,2-d]pyrimidine-7-carboxylic acid [1-((S)-2-hydroxy-propionyl)-piperidin-4-yl]-amide] | 14.1 nM
4 | COc1cc(-c2ncnc3c(C(=O)NC4CCN(C(=O)[C@H](C)O)CC4)c[nH]c23)c(OCC2CC2)cc1F [Example 228, 4-(2-Cyclopropylmethoxy-4-fluoro-5-methoxy-phenyl)-5H-pyrrolo[3,2-d]pyrimidine-7-carboxylic acid [1-((S)-2-hydroxy-propionyl)-piperidin-4-yl]-amide] | 0.162 nM
5 | COc1cc(-c2ncnc3c(C(=O)N[C@@H]4CCCN(C(=O)CO)C4)c[nH]c23)c(OCC2CC2)cc1F [Example 229, 4-(2-Cyclopropylmethoxy-4-fluoro-5-methoxy-phenyl)-5H-pyrrolo[3,2-d]pyrimidine-7-carboxylic acid [(R)-1-(2-hydroxy-acetyl)piperidin-3-yl]-amide] | 0.2 nM
6 | COc1cc(-c2ncnc3c(C(=O)N[C@@H]4CCCN(C(=O)[C@H](C)O)C4)c[nH]c23)c(OCC2CC2)cc1F [Example 230, 4-(2-Cyclopropylmethoxy-4-fluoro-5-methoxy-phenyl)-5H-pyrrolo[3,2-d]pyrimidine-7-carboxylic acid [(R)-1-((S)-2-hydroxy-propionyl)-piperidin-3-yl]-amide] | 0.24 nM
7 | COc1cc(-c2ncnc3c(C(=O)N[C@@H]4CCN(C(=O)CO)C4)c[nH]c23)c(OCC2CC2)cc1F [Example 231, 4-(2-Cyclopropylmethoxy-4-fluoro-5-methoxy-phenyl)-5H-pyrrolo[3,2-d]pyrimidine-7-carboxylic acid [(R)-1-(2-hydroxy-acetyl)-pyrrolidin-3-yl]amide] | 0.692 nM
8 | COc1cc(-c2ncnc3c(C(=O)N[C@@H]4CCN(C(=O)[C@H](C)O)C4)c[nH]c23)c(OCC2CC2)cc1F [Example 232, 4-(2-Cyclopropylmethoxy-4-fluoro-5-methoxy-phenyl)-5H-pyrrolo[3,2-d]pyrimidine-7-carboxylic acid [(R)-1-((S)-2-hydroxy-propionyl)-pyrrolidin-3-yl]amide] | 0.355 nM
9 | COc1cc(OCC2CC2)c(-c2ncnc3c(C(=O)N[C@H]4CC[C@H](NC(=O)CO)CC4)c[nH]c23)cc1F [Example 233, trans-4-(2-Cyclopropylmethoxy-5-fluoro-4-methoxy-phenyl)-5H-pyrrolo[3,2-d]pyrimidine-7-carboxylic acid [4-(2-hydroxy-acetylamino)-cyclohexyl]-amide] | 0.759 nM
10 | COc1cc(OCC2CC2)c(-c2ncnc3c(C(=O)N[C@H]4CC[C@H](NC(=O)[C@H](C)O)CC4)c[nH]c23)cc1F [Example 234, trans-4-(2-Cyclopropylmethoxy-5-fluoro-4-methoxy-phenyl)-5H-pyrrolo[3,2-d]pyrimidine-7-carboxylic acid [4-((S)-2-hydroxy-propionylamino)-cyclohexyl]-amide] | 0.977 nM
11 | COc1cc(OCC2CC2)c(-c2ncnc3c(C(=O)N[C@H]4CC[C@H](NC(=O)C5(O)CC5)CC4)c[nH]c23)cc1F [Example 235, trans-4-(2-Cyclopropylmethoxy-5-fluoro-4-methoxy-phenyl)-5H-pyrrolo[3,2-d]pyrimidine-7-carboxylic acid {4-[(1-hydroxy-cyclopropanecarbonyl)-amino]-cyclohexyl}-amide] | 0.457 nM
12 | COc1cc(OCC2CC2)c(-c2ncnc3c(C(=O)NC4CCN(C(=O)CO)CC4)c[nH]c23)cc1F [Example 236, 4-(2-Cyclopropylmethoxy-5-fluoro-4-methoxy-phenyl)-5H-pyrrolo[3,2-d]pyrimidine-7-carboxylic acid [1-(2-hydroxy-ethanoyl)-piperidin-4-yl]amide] | 1.66 nM
13 | COc1cc(OCC2CC2)c(-c2ncnc3c(C(=O)NC4CCN(C(=O)[C@H](C)O)CC4)c[nH]c23)cc1F [Example 237, 4-(2-Cyclopropylmethoxy-5-fluoro-4-methoxy-phenyl)-5H-pyrrolo[3,2-d]pyrimidine-7-carboxylic acid [1-((S)-2-hydroxy-propanoyl)piperidin-4-yl]-amide] | 0.617 nM
14 | COc1cc(OCC2CC2)c(-c2ncnc3c(C(=O)NC4CCN(C(=O)C5(O)CC5)CC4)c[nH]c23)cc1F [Example 238, 4-(2-Cyclopropylmethoxy-5-fluoro-4-methoxy-phenyl)-5H-pyrrolo[3,2-d]pyrimidine-7-carboxylic acid {1-[1-(1-hydroxy-cyclopropyl)methanoyl]-piperidin-4-yl}-amide] | 0.316 nM
15 | COc1cc(OCC2CC2)c(-c2ncnc3c(C(=O)N[C@H]4CCCN(C(=O)[C@H](C)O)C4)c[nH]c23)cc1F [Example 239, 4-(2-cyclopropylmethoxy-5-fluoro-4-methoxy-phenyl)-5H-pyrrolo[3,2-d]pyrimidine-7-carboxylic acid [(S)-1-((S)-2-hydroxy-propanoyl)piperidin-3-yl]-amide] | 2.51 nM
16 | COc1cc(OCC2CC2)c(-c2ncnc3c(C(=O)N[C@@H]4CCCN(C(=O)[C@H](C)O)C4)c[nH]c23)cc1F [Example 240, 4-(2-Cyclopropylmethoxy-5-fluoro-4-methoxy-phenyl)-5H-pyrrolo[3,2-d]pyrimidine-7-carboxylic acid [(R)-1-((S)-2-hydroxy-propanoyl)piperidin-3-yl]-amide] | 0.501 nM
17 | COc1cc(OCC2CC2)c(-c2ncnc3c(C(=O)N[C@@H]4CCN(C(=O)CO)C4)c[nH]c23)cc1F [Example 241, 4-(2-Cyclopropylmethoxy-5-fluoro-4-methoxy-phenyl)-5H-pyrrolo[3,2-d]pyrimidine-7-carboxylic acid [(R)-1-(2-hydroxy-acetyl)pyrrolidin-3-yl]-amide] | 1.35 nM
18 | COc1cc(OCC2CC2)c(-c2ncnc3c(C(=O)N[C@@H]4CCN(C(=O)[C@H](C)O)C4)c[nH]c23)cc1F [Example 242, 4-(2-Cyclopropylmethoxy-5-fluoro-4-methoxy-phenyl)-5H-pyrrolo[3,2-d]pyrimidine-7-carboxylic acid [(R)-1-((S)-2-hydroxy-propionyl)pyrrolidin-3-yl]-amide] | 0.977 nM
19 | Cc1ccc(OCC2CC2)c(-c2ncnc3c(C(=O)N[C@H]4CC[C@H](NC(=O)CO)CC4)c[nH]c23)c1 [Example 243, trans-4-(2-Cyclopropylmethoxy-5-methyl-phenyl)-5H-pyrrolo[3,2-d]pyrimidine-7-carboxylic acid [4-(2-hydroxy-acetylamino)-cyclohexyl]-amide] | 2.29 nM
20 | Cc1ccc(OCC2CC2)c(-c2ncnc3c(C(=O)N[C@H]4CC[C@H](NC(=O)[C@H](C)O)CC4)c[nH]c23)c1 [Example 244, trans-4-(2-Cyclopropylmethoxy-5-methyl-phenyl)-5H-pyrrolo[3,2-d]pyrimidine-7-carboxylic acid [4-((S)-2-hydroxy-propionylamino)-cyclohexyl]-amide] | 1.95 nM
21 | Cc1ccc(OCC2CC2)c(-c2ncnc3c(C(=O)N[C@H]4CC[C@H](NC(=O)C5(O)CC5)CC4)c[nH]c23)c1 [Example 245, trans-4-(2-Cyclopropylmethoxy-5-methyl-phenyl)-5H-pyrrolo[3,2-d]pyrimidine-7-carboxylic acid {4-[(1-hydroxy-cyclopropanecarbonyl)-amino]-cyclohexyl}-amide] | 1.15 nM
22 | Cc1ccc(OCC2CC2)c(-c2ncnc3c(C(=O)NC4CCN(C(=O)CO)CC4)c[nH]c23)c1 [Example 246, 4-(2-Cyclopropylmethoxy-5-methyl-phenyl)-5H-pyrrolo[3,2-d]pyrimidine-7-carboxylic acid [1-(2-hydroxy-acetyl)piperidin-4-yl]-amide] | 3.63 nM
23 | Cc1ccc(OCC2CC2)c(-c2ncnc3c(C(=O)NC4CCN(C(=O)[C@H](C)O)CC4)c[nH]c23)c1 [Example 247, 4-(2-Cyclopropylmethoxy-5-methyl-phenyl)-5H-pyrrolo[3,2-d]pyrimidine-7-carboxylic acid [1-((S)-2-hydroxy-propionyl)piperidin-4-yl]-amide] | 2.34 nM
24 | Cc1ccc(OCC2CC2)c(-c2ncnc3c(C(=O)NC4CCN(C(=O)C5(O)CC5)CC4)c[nH]c23)c1 [Example 248, 4-(2-Cyclopropylmethoxy-5-methyl-phenyl)-5H-pyrrolo[3,2-d]pyrimidine-7-carboxylic acid [1-(1-hydroxy-cyclopropanecarbonyl)-piperidin-4-yl]-amide] | 1.1 nM
25 | CCOc1ccc2c(c1-c1ncnc3c(C(=O)NC4CCN(C(=O)[C@H](C)O)CC4)c[nH]c13)OCO2 [Example 249, 4-(5-Ethoxy-benzo[1,3]dioxol-4-yl)-5H-pyrrolo[3,2-d]pyrimidine-7-carboxylic acid [1-((S)-2-hydroxy-propionyl)-piperidin-4-yl]-amide] | 2.14 nM
26 | CCOc1ccc2c(c1-c1ncnc3c(C(=O)N[C@@H]4CCN(C(=O)[C@H](C)O)C4)c[nH]c13)OCO2 [Example 250, 4-(5-Ethoxy-benzo[1,3]dioxol-4-yl)-5H-pyrrolo[3,2-d]pyrimidine-7-carboxylic acid [(R)-1-((S)-2-hydroxy-propionyl)-pyrrolidin-3-yl]amide] | 4.79 nM
